Measured values from PubChem BioAssay AID1963863 (Molecular Pharmacology Branch, DTP, NCI, 2024).

Test system: 931267-113-T-J1-PDC KRAS spheroid with HUVEC/MSC, viability
Assay: Anticancer human tumor 931267-113-T-J1-PDC patient-derived colon adenocarcinoma cell line growth inhibition [KRAS2]
Conditions: for IC50: curve of first compound; for viability, T/C: stronger effect = lower value
Method in brief: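 KRAS-mutant tumor cells were grown as spheroids with HUVEC endothelial cells and human MSCs as stroma. Targeted agents were tested alone and with KRAS pathway inhibitors. Doses started at or near clinical Cmax, or 10 microM, descending half-log.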

[1] = second compound 0.0316 µM, first compound 0.000316 µM
[2] = second compound 0.0316 µM, first compound 0.001 µM
[3] = second compound 0.0316 µM, first compound 0.00316 µM
[4] = second compound 0.0316 µM, first compound 0.01 µM
[5] = second compound 0.0316 µM, first compound 0.0316 µM
[6] = second compound 0.1 µM, first compound 0.000316 µM
[7] = second compound 0.1 µM, first compound 0.001 µM
[8] = second compound 0.1 µM, first compound 0.00316 µM
[9] = second compound 0.1 µM, first compound 0.01 µM
[10] = second compound 0.1 µM, first compound 0.0316 µM
[11] = second compound 0.316 µM, first compound 0.000316 µM
[12] = second compound 0.316 µM, first compound 0.001 µM
[13] = second compound 0.316 µM, first compound 0.00316 µM
[14] = second compound 0.316 µM, first compound 0.01 µM
[15] = second compound 0.316 µM, first compound 0.0316 µM
[16] = second compound 1 µM, first compound 0.000316 µM
[17] = second compound 1 µM, first compound 0.001 µM
[18] = second compound 1 µM, first compound 0.00316 µM
[19] = second compound 1 µM, first compound 0.01 µM
[20] = second compound 1 µM, first compound 0.0316 µM
[21] = second compound 3.16 µM, first compound 0.000316 µM
[22] = second compound 3.16 µM, first compound 0.001 µM
[23] = second compound 3.16 µM, first compound 0.00316 µM
[24] = second compound 3.16 µM, first compound 0.01 µM
[25] = second compound 3.16 µM, first compound 0.0316 µM
[26] = second compound 0.0316 µM, first compound 0.1 µM
[27] = second compound 0.1 µM, first compound 0.1 µM
[28] = second compound 0.316 µM, first compound 0.1 µM
[29] = second compound 1 µM, first compound 0.1 µM
[30] = second compound 3.16 µM, first compound 0.1 µM
[31] = second compound 0.0316 µM, first compound 0.316 µM
[32] = second compound 0.0316 µM, first compound 1 µM
[33] = second compound 0.0316 µM, first compound 3.16 µM
[34] = second compound 0.0316 µM, first compound 10 µM
[35] = second compound 0.1 µM, first compound 0.316 µM
[36] = second compound 0.1 µM, first compound 1 µM
[37] = second compound 0.1 µM, first compound 3.16 µM
[38] = second compound 0.1 µM, first compound 10 µM
[39] = second compound 0.316 µM, first compound 0.316 µM
[40] = second compound 0.316 µM, first compound 1 µM
[41] = second compound 0.316 µM, first compound 3.16 µM
[42] = second compound 0.316 µM, first compound 10 µM
[43] = second compound 1 µM, first compound 0.316 µM
[44] = second compound 1 µM, first compound 1 µM
[45] = second compound 1 µM, first compound 3.16 µM
[46] = second compound 1 µM, first compound 10 µM
[47] = second compound 3.16 µM, first compound 0.316 µM
[48] = second compound 3.16 µM, first compound 1 µM
[49] = second compound 3.16 µM, first compound 3.16 µM
[50] = second compound 3.16 µM, first compound 10 µM
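Further: compound exposure lasted 7 days before the readout.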
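Wherever viability, T/C is given: 100% = DMSO vehicle control viability.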

CC(=O)Nc1cccc(-n2c(=O)n(C3CC3)c(=O)c3c(Nc4ccc(I)cc4F)n(C)c(=O)c(C)c32)c1 + C=CC(=O)N1CCN(c2nc(OCC3CCCN3C)nc3c2CCN(c2cccc4cccc(C)c24)C3)CC1CC#N
IC50 (second compound 0.0316 µM): 6.25 nM
IC50 (second compound 0.1 µM): 11.9 nM
IC50 (second compound 0.316 µM): 4.45 nM
IC50 (second compound 1 µM): 1.48 nM
IC50 (second compound 3.16 µM): < 0.1 nM
viability, T/C (second compound 0.0316 µM, first compound 0.0001 µM): 98.9%
viability, T/C [1]: 78%
viability, T/C [2]: 69.3%
viability, T/C [3]: 54.7%
viability, T/C [4]: 60.3%
viability, T/C [5]: 13.2%
viability, T/C (second compound 0.1 µM, first compound 0.0001 µM): 83%
viability, T/C [6]: 82.4%
viability, T/C [7]: 64.2%
viability, T/C [8]: 72.6%
viability, T/C [9]: 59.5%
viability, T/C [10]: 8.65%
viability, T/C (second compound 0.316 µM, first compound 0.0001 µM): 69.7%
viability, T/C [11]: 83%
viability, T/C [12]: 54.9%
viability, T/C [13]: 53.8%
viability, T/C [14]: 42.7%
viability, T/C [15]: 9.24%
viability, T/C (second compound 1 µM, first compound 0.0001 µM): 74.7%
viability, T/C [16]: 59.8%
viability, T/C [17]: 45.9%
viability, T/C [18]: 52.9%
viability, T/C [19]: 28.2%
viability, T/C [20]: 9.56%
viability, T/C (second compound 3.16 µM, first compound 0.0001 µM): 0.22%
viability, T/C [21]: 0.24%
viability, T/C [22]: 0.28%
viability, T/C [23]: 0.24%
viability, T/C [24]: 0.21%
viability, T/C [25]: 0.25%

CN(C)C/C=C/C(=O)Nc1cc2c(Nc3ccc(F)c(Cl)c3)ncnc2cc1O[C@H]1CCOC1 + C=CC(=O)N1CCN(c2nc(OCC3CCCN3C)nc3c2CCN(c2cccc4cccc(C)c24)C3)CC1CC#N
IC50 (second compound 0.0316 µM): > 100 nM
IC50 (second compound 0.1 µM): > 100 nM
IC50 (second compound 0.316 µM): > 100 nM
IC50 (second compound 1 µM): > 100 nM
IC50 (second compound 3.16 µM): < 0.316 nM
viability, T/C [1]: 82.1%
viability, T/C [2]: 86.9%
viability, T/C [3]: 98.2%
viability, T/C [4]: 68.6%
viability, T/C [5]: 78.3%
viability, T/C [26]: 75.8%
viability, T/C [6]: 89.2%
viability, T/C [7]: 98%
viability, T/C [8]: 65.7%
viability, T/C [9]: 62.1%
viability, T/C [10]: 65.9%
viability, T/C [27]: 64.1%
viability, T/C [11]: 77.6%
viability, T/C [12]: 70.7%
viability, T/C [13]: 69.3%
viability, T/C [14]: 62.2%
viability, T/C [15]: 66.2%
viability, T/C [28]: 70.7%
viability, T/C [16]: 59.1%
viability, T/C [17]: 72.6%
viability, T/C [18]: 70%
viability, T/C [19]: 72.1%
viability, T/C [20]: 53.1%
viability, T/C [29]: 59.6%
viability, T/C [21]: 0.31%
viability, T/C [22]: 0.19%
viability, T/C [23]: 0.24%
viability, T/C [24]: 0.2%
viability, T/C [25]: 0.21%
viability, T/C [30]: 0.47%

COC(=O)c1ccc2c(C(=Nc3ccc(N(C)C(=O)CN4CCN(C)CC4)cc3)c3ccccc3)c(O)[nH]c2c1 + C=CC(=O)N1CCN(c2nc(OCC3CCCN3C)nc3c2CCN(c2cccc4cccc(C)c24)C3)CC1CC#N
IC50 (second compound 0.0316 µM): 683 nM
IC50 (second compound 0.1 µM): 1170 nM
IC50 (second compound 0.316 µM): 647 nM
IC50 (second compound 1 µM): 120 nM
IC50 (second compound 3.16 µM): < 31.6 nM
viability, T/C [5]: 90.5%
viability, T/C [26]: 87.1%
viability, T/C [31]: 61.1%
viability, T/C [32]: 50.7%
viability, T/C [33]: 0.59%
viability, T/C [34]: 0.32%
viability, T/C [10]: 73.9%
viability, T/C [27]: 76.4%
viability, T/C [35]: 64.5%
viability, T/C [36]: 57.8%
viability, T/C [37]: 0.37%
viability, T/C [38]: 0.38%
viability, T/C [15]: 95%
viability, T/C [28]: 88.8%
viability, T/C [39]: 67.6%
viability, T/C [40]: 42.8%
viability, T/C [41]: 0.3%
viability, T/C [42]: 0.2%
viability, T/C [20]: 47.2%
viability, T/C [29]: 63.7%
viability, T/C [43]: 20.4%
viability, T/C [44]: 0.52%
viability, T/C [45]: 0.13%
viability, T/C [46]: 0.19%
viability, T/C [25]: 0.24%
viability, T/C [30]: 0.16%
viability, T/C [47]: 0.25%
viability, T/C [48]: 0.15%
viability, T/C [49]: 0.21%
viability, T/C [50]: 0.22%

COc1cc(Nc2ncc3c(n2)-c2ccc(Cl)cc2C(c2c(F)cccc2OC)=NC3)ccc1C(=O)O + C=CC(=O)N1CCN(c2nc(OCC3CCCN3C)nc3c2CCN(c2cccc4cccc(C)c24)C3)CC1CC#N
IC50 (second compound 0.0316 µM): > 10000 nM
IC50 (second compound 0.1 µM): > 10000 nM
IC50 (second compound 0.316 µM): > 10000 nM
IC50 (second compound 1 µM): 5040 nM
IC50 (second compound 3.16 µM): < 31.6 nM
viability, T/C [5]: 87.9%
viability, T/C [26]: 89.5%
viability, T/C [31]: 93.8%
viability, T/C [32]: 75.6%
viability, T/C [33]: 95.8%
viability, T/C [34]: 68.1%
viability, T/C [10]: 106%
viability, T/C [27]: 89.7%
viability, T/C [35]: 85.6%
viability, T/C [36]: 88%
viability, T/C [37]: 68.6%
viability, T/C [38]: 58.3%
viability, T/C [15]: 93.5%
viability, T/C [28]: 91.8%
viability, T/C [39]: 91.7%
viability, T/C [40]: 55.6%
viability, T/C [41]: 70%
viability, T/C [42]: 63%
viability, T/C [20]: 92.6%
viability, T/C [29]: 60.3%
viability, T/C [43]: 66.4%
viability, T/C [44]: 64.1%
viability, T/C [45]: 66%
viability, T/C [46]: 31.8%
viability, T/C [25]: 0.22%
viability, T/C [30]: 0.29%
viability, T/C [47]: 0.25%
viability, T/C [48]: 0.3%
viability, T/C [49]: 0.17%
viability, T/C [50]: 0.23%

COc1cc2nccc(Oc3ccc(NC(=O)C4(C(=O)Nc5ccc(F)cc5)CC4)cc3)c2cc1OC + C=CC(=O)N1CCN(c2nc(OCC3CCCN3C)nc3c2CCN(c2cccc4cccc(C)c24)C3)CC1CC#N
IC50 (second compound 0.0316 µM): > 10000 nM
IC50 (second compound 0.1 µM): > 10000 nM
IC50 (second compound 0.316 µM): > 10000 nM
IC50 (second compound 1 µM): 2470 nM
IC50 (second compound 3.16 µM): < 31.6 nM
viability, T/C [5]: 107%
viability, T/C [26]: 98.3%
viability, T/C [31]: 95.2%
viability, T/C [32]: 98.7%
viability, T/C [33]: 64.7%
viability, T/C [34]: 59.5%
viability, T/C [10]: 107%
viability, T/C [27]: 97.9%
viability, T/C [35]: 106%
viability, T/C [36]: 104%
viability, T/C [37]: 66.6%
viability, T/C [38]: 50.9%
viability, T/C [15]: 108%
viability, T/C [28]: 119%
viability, T/C [39]: 108%
viability, T/C [40]: 110%
viability, T/C [41]: 71.9%
viability, T/C [42]: 51.8%
viability, T/C [20]: 92.3%
viability, T/C [29]: 101%
viability, T/C [43]: 92.8%
viability, T/C [44]: 104%
viability, T/C [45]: 37%
viability, T/C [46]: 15.6%
viability, T/C [25]: 16.2%
viability, T/C [30]: 13.8%
viability, T/C [47]: 0.57%
viability, T/C [48]: 0.23%
viability, T/C [49]: 2.35%
viability, T/C [50]: 0.23%

O=C(c1cc(Cc2n[nH]c(=O)c3ccccc23)ccc1F)N1CCN(C(=O)C2CC2)CC1 + C=CC(=O)N1CCN(c2nc(OCC3CCCN3C)nc3c2CCN(c2cccc4cccc(C)c24)C3)CC1CC#N
IC50 (second compound 0.0316 µM): > 10000 nM
IC50 (second compound 0.1 µM): > 10000 nM
IC50 (second compound 0.316 µM): > 10000 nM
IC50 (second compound 1 µM): > 10000 nM
IC50 (second compound 3.16 µM): < 31.6 nM
viability, T/C [5]: 91%
viability, T/C [26]: 91.8%
viability, T/C [31]: 90.8%
viability, T/C [32]: 109%
viability, T/C [33]: 113%
viability, T/C [34]: 103%
viability, T/C [10]: 84.7%
viability, T/C [27]: 99.4%
viability, T/C [35]: 81.3%
viability, T/C [36]: 79%
viability, T/C [37]: 73.9%
viability, T/C [38]: 84.7%
viability, T/C [15]: 84.6%
viability, T/C [28]: 96.5%
viability, T/C [39]: 87%
viability, T/C [40]: 69.3%
viability, T/C [41]: 76.1%
viability, T/C [42]: 72.5%
viability, T/C [20]: 72.2%
viability, T/C [29]: 79.3%
viability, T/C [43]: 87.2%
viability, T/C [44]: 69.4%
viability, T/C [45]: 80.2%
viability, T/C [46]: 62.5%
viability, T/C [25]: 0.28%
viability, T/C [30]: 0.21%
viability, T/C [47]: 0.3%
viability, T/C [48]: 0.29%
viability, T/C [49]: 0.28%
viability, T/C [50]: 0.43%
